The nature of data set [1]: Preliminary repeat-dose toxicity in normal mice. It is filed as in vivo. The settings on record: weekly, four IV doses, BALB/c mice. As to the method: The toxicity of Hb-SMCC-DM1 with an (Prepared using one-step method in Example 5, MDR of 3.0) is evaluated in repeat-dose study in normal BALB/c mice. Briefly, mice (n=3, females/group) are administered with unconjugated-DM1 and Hb-SMCC-DM1 weekly for a total of four IV doses at PBS, 2.5 mg/kg of unconjugated-DM1, and 42, 84, 126, and 168 mg/kg of Hb-SMCC-DM1, respectively. Body weights are recorded at every 3 days.

The test system of data set [2] is cancer cell lines. The data set is described as follows: MTT cytotoxicity assay on cancer cell lines. The class given is cell-based. Particulars: various cancer cells. As to the method:
Cancer cells are cultured in medium (Invitrogen) with 10% Fetal bovine serum (FBS), 100 U/mL penicillin and 100 μg/mL streptomycin at 37° C. For normoxic condition, cells are incubated with ambient O2 concentration and 5% CO2, for hypoxic condition, cells are incubated with 0.1-0.5% O2 (Quorum FC-7 automatic CO2/O2/N2 gas mixer) and 5% CO2.
Cell viability is measured using a 3-(4,5-dimethylthiazol-2-yl)-2,5-diphenyltetrazolium bromide (MTT) proliferation assay. Briefly, cancer cell lines (e.g. HCT116, 4T1, and SMMC7721) are seeded in a 96-well flat-bottomed microplate and cultured in 100 μL growth medium at 37° C. and 5% CO2 for 24 h. Cell culture medium in each well is then replaced by 100 μL cell growth medium, containing either no drug, DM1 alone or modified hemoglobin-based cytotoxic agents at series concentrations. Incubation of drugs for 24 h, cell culture medium containing drugs is replaced by 100 μL MTT labeling reagent (1 mg/mL in PBS solution) in each well and incubation for further 4 h at 37° C. The medium is removed gently, and 50 μL DMSO is then added to each well as solubilizing agent to dissolve the formazan crystals completely. The absorbance at the wavelength of 570 nm is measured by iMark Microplate Absorbance Spectrophotometer, and each data point represents the means±SD from triplicate wells.

Data set [3] in a line: Biodistribution of AF750-labeled agents in normal mice. The class given is in vivo, normal BALB/c mice. The settings on record: 72 h post-injection, 40 mg/kg intravenously. As to the method:
Biodistribution of Hb-SMCC-DM1 (Prepared using one-step method in Example 5, MDR of 3.0) in normal mice is performed by using normal mice model. Briefly, normal BALB/c mice are injected intravenously with 40 mg/kg of Hb-AF750 and Hb-SMCC-DM1-AF750, respectively, and imaged serially from 2 hour to 72 hour post-injection. The mice are sacrificed at 72 hour of drug administration to collect various kinds of organ for imaging.

On to `COc1cc2cc(c1Cl)N(C)C(=O)C[C@H](OC(=O)[C@H](C)N(C)C(=O)CCS)[C@]1(C)O[C@H]1[C@H](C)[C@@H]1C[C@@](O)(NC(=O)O1)[C@H](OC)/C=C/C=C(\C)C2` [unconjugated-DM1, mertansine (DM1)], for which the tolerated dose entry in data set [1] is given as “up to 2.5 mg/kg”. Consider hemoglobin, for which the concentration for half-maximal inhibition (IC50) in data set [2] is above 10 µM. In addition, the “location of fluorescence signal (biodistribution)” value in data set [3] was “mainly in liver and kidney”.

Source of the values: patent US11576978B2, “Hemoglobin-based therapeutic agents” (priority 2019, dated 2023).
